# Laboratory results: US20250345295A1, “LMK235 COMPOSITIONS AND METHODS” (UNM Rainforest Innovations, priority 2024, published 2025)
# Entries after “also recorded” stand apart in the source; their conditions may differ.
# Tests used:
# [1] = tested on: mice with trigeminal nerve injury; assay: Light/dark place preference test (anxiety-like behavior); type: in vivo, mouse; settings: nerve-injured mice, weeks 6-9 post surgery
# Experimental: Anxiety-related behaviors were assessed in a manner typical in the literature—i.e., once at the end in week 8 since anxiety develops only in mice 6-8 weeks after persisting nerve injury (e.g., Lyons et al., Neuroscience 2015 Jun. 4; 295:126-138). The effects of HDACi on chronic craniofacial pain-related behaviors were assessed using light/dark place preference test and zero maze.
# Animals were exposed to acoustic startle (5 minutes) immediately prior to placement in the light/dark place preference box as in a previous study (Lyons et al., Neuroscience 2015 Jun. 4; 295:126-138). Mils acoustic startle stress just prior to the test induces panic anxiety-like behavior with increased time and entries in the open arms compared to controls (de Paula HMG, Hoshino K, Behav Brain Res 2003 Dec. 17; 147(1-2):157-162; de Paula HMG, Hoshino K, Physiol Behav 2004 January; 80(4):459-464; Kontinen et al., Pain 1999 March;80(1-2):341-346). In the light/dark box place preference task (total time 10 minutes) anxiety-like behaviors were recorded as: (i) total time spent in the light area, (ii) number of entries into the light area, (iii) number of rearing events/exploratory behavior, (iv) latency of the first transition into the light chamber, and (v) latency of first re-entry (transition) back into the dark chamber.
# [2] = tested on: small (<30 μm) TG neurons from FRICT-ION mice; assay: Whole-cell patch-clamp electrophysiology, TG neurons from FRICT-ION mice; type: cell-based, mouse; settings: 13 μM for one hour vs 0.1% DMSO
# Experimental: The excitability of TG neurons is directly linked to the pathophysiology of trigeminal neuropathic pain. In order to determine the effect of LMK235 on TG neurons from FRICT-ION mice, whole-cell patch-clamp electrophysiological recordings were made from small (<30 μm) TG neurons in the presence of LMK235 (13 μM) or vehicle (0.1% DMSO). TG neurons were obtained from FRICT-ION mice at three weeks post injury or naïve mice. The TG neurons were treated for one hour in vitro with either LMK235 or vehicle control prior to recording (FIG. 7).
# Neurons with a diameter of <30 μm were identified by infrared differential interference contrast (IR-DIC) imaging with a microscope connected to an Olympus digital camera. Current clamp recordings were performed using a Molecular Devices Multiclamp 700B (Scientifica, UK). Signals were filtered at 5 KHz, acquired at 50 KHz using a Molecular Devices 1550B converter (Scientifica, UK) and recorded using Clampex 11 software (Molecular Devices, Scientifica, UK). Electrodes were pulled with a Zeitz puller (Werner Zeitz, Martinsreid, Germany) from borosilicate thick glass (GC150F, Sutter Instruments). Electrode resistance was 5-8 MΩ. Bridge balance was applied to all recordings. Intracellular solution contained (in mM) 125 K-gluconate, 6 KCl, 10 HEPES, 0.1 EGTA, 2 Mg-ATP, pH 7.3 with KOH, and osmolarity of 290-310 mOsm. Artificial cerebrospinal fluid (aCSF) contained (in mM) 113 NaCl, 3 KCl, 25 NaHCO3, 1 NaH2PO4, 2 CaCl2), 2 MgCl2, and 11-glucose. For whole-cell current clamp recordings, to evaluate the basic input-output action potential frequency response to hyperpolarization and depolarization, DC current was injected from 0 pA to +200 pA in 10-pA increments for a duration of 500 milliseconds at the cell's intrinsic resting membrane potential. Data acquisition was sampled at 20 kHz and filtered at 2.4 kHz. Recordings with a series resistance greater than 20 MΩ were discarded, and series resistance was compensated to 70%. In response to a −100 pA hyperpolarizing pulse with 500 millisecond duration, voltage sag amplitude was measured. Sag ratio was calculated using the following equation as described previously (Fan et al., Front Cell Neurosci 2016 Mar. 24; 10:74):
# where Vpeak is the maximum voltage deflection and Vss is the steady state voltage at the end of the hyperpolarizing pulse.
# Male mice were euthanized three weeks after inducing the FRICT-ION model. The TG were dissected, minced, and dissociated in an enzymatic combination containing sterile, calcium-free, and magnesium-free HBSS (Cat #14170112, Gibco), papain suspension (32.7 U/mgP, Cat #LS003126; Worthington, Lakewood, NJ), L-Cysteine (Cat #C7352-25g, Sigma), and saturated bicarbonate (Cat #S5761-500g, Sigma) solution. […]
# HDAC 5 = HDAC 5 (Homo sapiens, UniProt Q9UQL6); settings: cited from earlier work
# Sequence of HDAC 5 (Q9UQL6 whole entry, species assumed): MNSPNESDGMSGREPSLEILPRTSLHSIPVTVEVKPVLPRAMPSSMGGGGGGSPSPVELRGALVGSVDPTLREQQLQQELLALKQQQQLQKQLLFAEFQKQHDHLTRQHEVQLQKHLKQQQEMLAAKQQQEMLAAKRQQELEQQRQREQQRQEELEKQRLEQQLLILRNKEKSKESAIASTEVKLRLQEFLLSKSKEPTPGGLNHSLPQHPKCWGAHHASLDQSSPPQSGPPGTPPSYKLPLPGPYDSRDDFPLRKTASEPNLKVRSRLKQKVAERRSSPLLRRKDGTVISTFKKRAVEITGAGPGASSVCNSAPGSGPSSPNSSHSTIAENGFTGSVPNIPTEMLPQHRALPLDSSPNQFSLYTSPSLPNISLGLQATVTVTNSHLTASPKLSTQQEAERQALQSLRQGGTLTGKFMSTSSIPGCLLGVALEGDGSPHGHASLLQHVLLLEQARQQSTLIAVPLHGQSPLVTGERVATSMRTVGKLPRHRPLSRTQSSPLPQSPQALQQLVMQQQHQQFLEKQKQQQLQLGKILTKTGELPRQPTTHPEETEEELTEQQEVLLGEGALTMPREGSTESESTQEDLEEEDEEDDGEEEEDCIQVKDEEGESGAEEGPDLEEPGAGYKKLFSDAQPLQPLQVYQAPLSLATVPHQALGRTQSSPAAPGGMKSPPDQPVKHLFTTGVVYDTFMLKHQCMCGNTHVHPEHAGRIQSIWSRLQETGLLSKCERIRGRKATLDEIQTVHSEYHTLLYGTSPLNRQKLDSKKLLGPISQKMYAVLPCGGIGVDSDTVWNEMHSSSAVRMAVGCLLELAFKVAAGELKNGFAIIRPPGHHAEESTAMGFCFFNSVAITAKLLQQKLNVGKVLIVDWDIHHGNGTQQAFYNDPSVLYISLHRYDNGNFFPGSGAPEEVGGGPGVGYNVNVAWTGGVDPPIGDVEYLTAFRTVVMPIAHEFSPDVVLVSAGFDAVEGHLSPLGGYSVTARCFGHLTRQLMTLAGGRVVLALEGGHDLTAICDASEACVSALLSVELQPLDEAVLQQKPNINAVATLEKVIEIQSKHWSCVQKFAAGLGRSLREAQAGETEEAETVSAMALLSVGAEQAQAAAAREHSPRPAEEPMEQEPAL
smiles,measurement,setting,value
"Cc1cc(C)cc(C(=O)NOCCCCCC(=O)NO)c1 [LMK235, N-[[6-(Hydroxyamino)-6-oxohexyl]oxy]-3,5-dimethyl-benzamide]","anxiety-like behaviors, light/dark box test",[1],reduction of anxiety measures; also recorded: inhibited the development of anxiety-like behaviors
same,distribution of high (>200 pA) vs low (<200 pA) threshold TG neurons,[2],higher proportion of high threshold (>200 pA) neurons
same,resting membrane potential (RMP),[2],not significantly altered; also recorded: no significant differences
same,rheobase,[2],not significantly altered; also recorded: no significant differences
same,sag ratio,[2],significantly lower; also recorded: reduced
same,IC50,HDAC 5,4 nM
